Laboratory results: US20170209447A1, “Use of PNP Inhibitor to Treat Relapse of Malignancy after Hematopoietic Stem Cell Transplant” (Nitor Therapeutics, priority 2014, published 2017)

Tests used:
B16 tumors = assay: PNPi as anticancer agent in mouse melanoma model; type: in vivo, C57BL/6 mice
Procedure: Evaluation of PNPi as Anticancer Agent in Mouse Melanoma Model.
Treatment with the NTR001 was initiated on day 6 after injection of tumor cells. Tumor volume and survival were recorded every 3-4 days.

tetanus toxoid vaccine = assay: PNPi as adjuvant in tetanus toxoid vaccine efficacy study (tetanus toxoid mouse model); type: in vivo, mice; conditions: compared to vehicle treated group
Procedure: This Example Evaluates PNPi as an Adjuvant in Tetanus Toxoid Vaccine Efficacy Study.
Method: Tetanus toxoid (TT) was used to vaccinate mice thrice, two weeks apart. Mice were treated by oral administration of compounds NTR001 and NTR002 and serum was collected at various time points for antibody titer and interferon-g analysis. Mice in Groups 2-6 (Table 2) are vaccinated subcutaneously with 0.1 ml tetanus toxoid vaccine on DAYS 0, 14 and 28. Mice in Group 1 (Table 1) received no vaccine. Antibody titers for DAYS 38 are determined by ELISA using tetanus toxoid coated microtiter plates and anti-mouse conjugate. Sera from DAY 30 are assayed by ELISA for interferon-g.

## O=c1[nH]cnc2c([C@@H]3N[C@H](CO)[C@@H](O)[C@H]3O)c[nH]c12 [NTR001, 7-[(2S,3S,4R,5R)-3,4-dihydroxy-5-(hydroxymethyl)-2-pyrrolidinyl]-1,5-dihyro-4-H-pyrrolo-[3,2-d]pyrimidin-4-one]
B16 tumors; NTR001 as single agent (30 mg/kg PO week on/off; 5 mg/kg drinking water 28 days), FIG. 6
  survival: 0-20%
B16 tumors; NTR001 treatment initiated day 6 after tumor cells, 30 mg/kg PO week on/off or 5 mg/kg drinking water, FIG. 5
  tumor volume: significant decrease
Tetanus toxoid vaccine; day 30, ELISA, high dose group 60 mg/kg p.o., FIG. 4
  serum interferon-g levels: elevated
Tetanus toxoid vaccine; day 38, ELISA, p.o. 30 mg/kg (6 days of treatment) and 60 mg/kg (3 days of treatment), FIG. 3
  serum tetanus toxoid antibody titers: significantly elevated
